In article PMC10382584, “Macrocyclization of linear molecules by deep learning to facilitate macrocyclic drug candidates discovery” (Nature Communications, 2023):
“And” between values parts separate entries of the source, which are not always exact repeats. Equal values may be shown once. Read-outs that look alike come from different tables or passages of the source.

Experiments:
HEL cells = assay: Cell proliferation assay (CCK-8), HEL cells; format: cell-based, human
Method: (§1) The human erythroid leukemia (HEL 92.1.7) cells were purchased from the American Type Culture Collection (ATCC, TIB-180), and the human megakaryoblastic (SET2) cells were obtained from German Collection of Microorganisms and Cell Cultures (DSMZ, ACC 608). The anti-proliferative activities of compounds were evaluated using WST-8 cell counting kit-8 (Elabscience). HEL and SET-2 cells were seeded at 5000 cells/well in 70 μL RPMI-1640 medium (Hyclon) with 10% FBS (Gibco) to the 96-well plate and incubated overnight at 37 °C with 5% CO2. The compounds were serially diluted in RPMI-1640 medium, and cells were treated separately with 30 μL various concentrations of compounds for 72 h. The final DMSO concentration in the culture wells was 0.1%, which had no effect on the cell viability. Finally, 10 μL of CCK-8 solution was added into the wells. 4 h later, the absorbance values at 450 nm were recorded. IC50 values were determined using GraphPad Prism v8.3.0, and three parallel experiments were performed.

In vivo PK study in mice = details: male, BALB/c, mouse, plasma, 5 mg/kg
Method: The mice were separately administered to a group of three mice per time point for intravenous (5 mg/kg) or oral administration (5 mg/kg). […] Then the samples were separated by centrifugation and analyzed by LC-MS/MS (XEVO TQ-S) to determine the plasma drug concentrations. The PK parameters were calculated using the noncompartment model with Phoenix WinNonLin v8.0. The animal experimental procedures were approved by the Medicine Research Ethics Committee of Hangzhou Leading Pharmatech Co., Ltd.

DSS-induced colitis mice = assay: In vivo efficacy study, DSS-induced colitis model; set-up: species or system male BALB/c mice; details: Fedratinib 10 mg/kg; for DAI score (Fig. 6b) / Body weight (Fig. 6a): individual mice
Method: Model mice were divided into four groups and eight mice were included in each group on day 8. […] Meanwhile, solvent was given intragastrically to the control group and model group. On day 15, the mice were sacrificed, and the length and weight of each colon were measured.
Body weight, the stool consistency, and the presence of blood in feces were recorded daily in the morning. […] The maximum score was 9, which was the sum of the scores. About 1-cm colon tissue, which is 0.5 cm away from the anal margin, was collected, and the ileocecal area was used for histopathological examination. After H&E staining, the tissues were scored under single-blind conditions to evaluate the levels of inflammation and tissue damage in the colons following the criteria proposed by ref. [62]. Statistical analyses were performed using SPSS v24.0.

SET-2 cells = assay: Cell proliferation assay (CCK-8), SET-2 cells; format: cell-based, human; details: for Inhibition (%): single wells of replicate 1 and replicate 2
Method: as §1
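For Cmax in this document: mice dosed intravenously or orally, three animals per time point, plasma drug levels quantified by LC-MS/MS, PK parameters derived by noncompartmental analysis in Phoenix WinNonLin.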
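For Tmax in this document: mice dosed intravenously or orally, three animals per time point, plasma drug levels quantified by LC-MS/MS, PK parameters derived by noncompartmental analysis in Phoenix WinNonLin.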

For `Cc1cnc(Nc2ccc(OCCN3CCCC3)cc2)nc1Nc1cccc(S(=O)(=O)NC(C)(C)C)c1` [Fedratinib], the “Inhibition (%)” value (HEL cells; HEL cell lines, 0.0977 μM, single wells, replicates 1 and 2) was 3.834% and 2.092% and -5.316% and -2.068% and -2.146% and 0.251%, the “Inhibition (%)” value (HEL cells; HEL cell lines, 0.1953 μM, single wells, replicates 1 and 2) was 5.577% and 4.096% and -7.320% and -6.244% and 7.056% and 1.643% and the “Inhibition (%)” value (HEL cells; HEL cell lines, 0.3906 μM, single wells, replicates 1 and 2) was 16.296% and 7.233% and 2.004% and -5.316% and 4.195% and -1.991%. The “Inhibition (%)” value (HEL cells; HEL cell lines, 0.7813 μM, single wells, replicates 1 and 2) was 26.492% and 16.296% and 14.205% and 10.690% and 13.319% and 1.875%, the “Inhibition (%)” value (HEL cells; HEL cell lines, 1.5625 μM, single wells, replicates 1 and 2) was 66.754% and 58.911% and 59.608% and 37.908% and 40.692% and 44.790% and the “Inhibition (%)” value (HEL cells; HEL cell lines, 3.1250 μM, single wells, replicates 1 and 2, 3.125 µM) was 88.628% and 87.669% and 91.881% and 90.412% and 89.871%. For the same compound, the “Inhibition (%)” value (HEL cells; HEL cell lines, 6.2500 μM, single wells, replicates 1 and 2, 6.25 µM) was 90.893% and 89.499% and 94.355% and 93.737% and 94.510%, the “Inhibition (%)” value (HEL cells; HEL cell lines, 12.5000 μM, single wells, replicates 1 and 2, 12.5 µM) was 91.590% and 91.503% and 95.902% (2×) and 96.056% and the IC50 (HEL cells; HEL cell lines, single-replicate fits, read-out: IC50/μM (individual replicates), cellular antiproliferative activity) was 1.38 µM. The IC50 (HEL cells; Homo sapiens, HEL, 72 h, HEL cells, 72 h, mean ± SD, read-out: Cellular Antiproliferative Activity (IC50) HEL) was 1.34 ± 0.06 µM, the inhibition at 3.125 µM (HEL cells; Homo sapiens, HEL, HEL cell lines, 3.1250 μM, single wells, replicates 1 and 2) was 90.5% and the inhibition at 6.25 µM (HEL cells; Homo sapiens, HEL, HEL cell lines, 6.2500 μM, single wells, replicates 1 and 2) was 92.1%. The inhibition at 12.5 µM (HEL cells; Homo sapiens, HEL, HEL cell lines, 12.5000 μM, single wells, replicates 1 and 2) was 93.2%, the inhibition at 25 µM (HEL cells; Homo sapiens, HEL, HEL cell lines, […], single wells, replicates 1 and 2) was 94.5% and the IC50 (HEL cells; Homo sapiens, HEL, HEL cell lines, mean of 2 replicates, read-out: IC50/μM mean, cellular antiproliferative activity) was 1.34 µM. It also gave an IC50 (HEL cells; Homo sapiens, HEL, HEL cell lines, mean ± sd of 2 replicates, read-out: IC50/μM mean ± sd, cellular antiproliferative activity) of 1.34 ± 0.06 µM, an IC50 (HEL cells; Homo sapiens, HEL, HEL cell lines, single-replicate fits, read-out: IC50/μM (individual replicates), cellular antiproliferative activity) of 1.29 µM and an AUC(0-inf) (In vivo PK study in mice; iv) of 227 ng·h/mL. For the same compound, the Cmax (In vivo PK study in mice; iv) was 275 ng/mL, the Tmax (In vivo PK study in mice; iv) was 4.98 min and the half-life (In vivo PK study in mice; iv) was 18 min. For the same compound, the bioavailability (In vivo PK study in mice; oral) was 11.7%, the AUC(0-inf) (In vivo PK study in mice; po) was 50.2 ng·h/mL and the Cmax (In vivo PK study in mice; po) was 6.81 ng/mL. For the same compound, the Tmax (In vivo PK study in mice; po) was 60 min, the half-life (In vivo PK study in mice; po) was 282 min and the “histological scores (H&E, Ameho criteria)” value (DSS-induced colitis mice; 3.5% DSS colitis mice, compound 3 5 mg/kg) was “lower”. For the same compound, the body weight change (DSS-induced colitis mice; 3.5% DSS colitis mice, compound 3 5 mg/kg, intragastric, day 8 to day 14) was “alleviate the decrease of body weight”, the “DAI score (Fig. 6b)” value (DSS-induced colitis mice; day 0) was 0 and the “Body weight (Fig. 6a)” value (DSS-induced colitis mice; day 0, in g (unit assumed)) was 22.2 and 22.7 and 23.9 and 22.6 and 19.9 and 23.6 and 20.6 and 23.1. For the same compound, the “DAI score (Fig. 6b)” value (DSS-induced colitis mice; day 1) was 1 (4×) and 0 (4×), the “Body weight (Fig. 6a)” value (DSS-induced colitis mice; day 1, in g (unit assumed)) was 21.3 and 24.2 and 23.6 and 23.8 and 21.7 and 23.2 and 20.9 and 22 and the “DAI score (Fig. 6b)” value (DSS-induced colitis mice; day 2) was 0 (3×) and 1 (5×). For the same compound, the “Body weight (Fig. 6a)” value (DSS-induced colitis mice; day 2, in g (unit assumed)) was 22.6 and 23.8, the “DAI score (Fig. 6b)” value (DSS-induced colitis mice; day 3) was 0 (5×) and 1 (3×) and the “Body weight (Fig. 6a)” value (DSS-induced colitis mice; day 4) was 21.8 and 22.7 and 23.6 (2×) and 22.3 and 21.7 and 19.8 and 23.2. For the same compound, the “DAI score (Fig. 6b)” value (DSS-induced colitis mice; day 4) was 1 (5×) and 3 (2×) and 0, the “DAI score (Fig. 6b)” value (DSS-induced colitis mice; day 5) was 0 (3×) and 3 (2×) and 1 and 4 and 2 and the “Body weight (Fig. 6a)” value (DSS-induced colitis mice; day 5, in g (unit assumed)) was 22 and 21.8 and 23.1 and 21 and 21.9 and 23.6 and 18.9 and 22.7. The “DAI score (Fig. 6b)” value (DSS-induced colitis mice; day 6) was 1 (4×) and 6 and 7 and 2 and 5, the “Body weight (Fig. 6a)” value (DSS-induced colitis mice; day 6, in g (unit assumed)) was 22.1 and 20.1 and 22.6 and 19.3 and 21.5 and 23.6 and 17.1 and 20.5 and the “Body weight (Fig. 6a)” value (DSS-induced colitis mice; day 7) was 21.8 (2×) and 19 and 22.5 and 18.2 and 23.9 and 16 and 18.3. The “DAI score (Fig. 6b)” value (DSS-induced colitis mice; day 7) was 2 (2×) and 7 (3×) and 0 and 3 and 6, the “DAI score (Fig. 6b)” value (DSS-induced colitis mice; day 8) was 0 (5×) and 3 (2×) and 6 and the “Body weight (Fig. 6a)” value (DSS-induced colitis mice; day 8, in g (unit assumed)) was 22.3 and 18.8 and 23.8 and 18.6 and 21.7 and 24 and 15.6 and 17.2. The “DAI score (Fig. 6b)” value (DSS-induced colitis mice; day 9) was 0 (5×) and 3 (2×) and 1, the “Body weight (Fig. 6a)” value (DSS-induced colitis mice; day 9, in g (unit assumed)) was 22.3 and 19.4 and 23.7 and 19.1 and 19.3 and 24.2 and 15.3 and the “DAI score (Fig. 6b)” value (DSS-induced colitis mice; day 10) was 2 (2×) and 1 (3×) and 0 (2×). For the same compound, the “Body weight (Fig. 6a)” value (DSS-induced colitis mice; day 10, in g (unit assumed)) was 21.6 and 18.4 and 23.8 and 19.7 and 19 and 23.6 and 15.4, the “DAI score (Fig. 6b)” value (DSS-induced colitis mice; day 11) was 0 (5×) and 1 and 2 and the “Body weight (Fig. 6a)” value (DSS-induced colitis mice; day 11, in g (unit assumed)) was 21.9 and 18.6 and 23.5 and 20.2 and 18.7 and 23.6 and 16. For the same compound, the “DAI score (Fig. 6b)” value (DSS-induced colitis mice; day 12) was 0 (5×) and 1, the “Body weight (Fig. 6a)” value (DSS-induced colitis mice; day 12, in g (unit assumed)) was 22.2 and 19.1 and 24.1 and 19.9 and 19.4 and 23.8 and 16 and the “Body weight (Fig. 6a)” value (DSS-induced colitis mice; day 13, in g (unit assumed)) was 21.9 and 19.8 and 24.2 and 20.4 and 20.1 and 24 and 16.1. For the same compound, the “Body weight (Fig. 6a)” value (DSS-induced colitis mice; day 14, in g (unit assumed)) was 22.6 and 20.3 and 24.5 and 20.4 and 20.8 and 24.1 and 16.5, the “HE staining score (Fig. 6d)” value (DSS-induced colitis mice; individual colon tissues (n = 5)) was 1 and 3 and 0 and the “symptoms in DSS-induced murine colitis” value (DSS-induced colitis mice; compound 3 5 mg/kg) was “ameliorate the symptoms”. It also gave an IC50 (SET-2 cells; Homo sapiens, SET-2, 72 h, SET-2 cells, 72 h, mean ± SD, read-out: Cellular Antiproliferative Activity (IC50) SET-2) of 1.12 ± 0.08 µM, an IC50 (SET-2 cells; Homo sapiens, SET-2, SET-2 cell lines, mean of two replicates, read-out: IC50/μM mean) of 1.12 µM and an IC50 (SET-2 cells; Homo sapiens, SET-2, SET-2 cell lines, mean ± sd of two replicates, read-out: IC50/μM mean ± sd) of 1.12 ± 0.08 µM. The IC50 (SET-2 cells; Homo sapiens, SET-2, SET-2 cell lines, value of each single replicate, read-out: IC50/μM) was 1.07 µM, the “Inhibition (%)” value (SET-2 cells; SET-2 cell lines, C 0.0977 μM) was 12.0389% and 5.1759% and -0.6577% and 17.763% and 22.009% and 18.591% and the “Inhibition (%)” value (SET-2 cells; SET-2 cell lines, C 0.1953 μM) was 22.4478% and 11.8101% and 6.6629% and 13.309% and 23.874% and 25.324%. For the same compound, the “Inhibition (%)” value (SET-2 cells; SET-2 cell lines, C 0.3906 μM) was 33.6574% and 13.6403% and 14.6697% and 30.399% and 33.402% and 33.506%, the “Inhibition (%)” value (SET-2 cells; SET-2 cell lines, C 0.7813 μM) was 33.8862% and 39.7198% and 32.9711% and 35.163% and 37.960% and 48.110% and the “Inhibition (%)” value (SET-2 cells; SET-2 cell lines, C 1.5625 μM) was 69.3452% and 65.5705% and 67.2862% and 30.399% and 43.553% and 55.671%. For the same compound, the “Inhibition (%)” value (SET-2 cells; SET-2 cell lines, C 3.1250 μM) was 88.2185% and 85.2445% and 86.3883% and 75.039% and 80.010% and 81.357%, the “Inhibition (%)” value (SET-2 cells; SET-2 cell lines, C 6.2500 μM) was 86.3883% and 85.8164% and 88.9048% and 71.725% and 72.139% and 76.385% and the “Inhibition (%)” value (SET-2 cells; SET-2 cell lines, C 12.5000 μM) was 97.7123% and 97.3692% (2×) and 89.643% (2×) and 91.093%. It also gave an IC50 (SET-2 cells; SET-2 cell lines, value of each single replicate, read-out: IC50/μM) of 1.16 µM.
